From patent US6103888A, “Mammalian cationic proteins having lipopolysaccharide binding and anti-coagulant activity” (priority 1999, dated 2000)
Where “and” joins values, the source holds several entries; their conditions need not be identical. Identical values can stand only once.

How the values were obtained:
factor X = molecular target: T1, factor X (Homo sapiens, UniProt P00742); assay: Factor X activation by tissue factor and factor VII, synthetic substrate S-2222; assay type: biochemical; conditions: synthetic substrate; listed as 197
T1 construct: purchased Sigma Chemical Co., St. Louis, Mo
Experimental: Factor Xa activity using synthetic substrate. A reaction mixture of factor VII (1 unit/ml, 200 μl), factor X (1 unit/ml, 200 μl), tissue factor (2.5 mg/ml, 50 μl), 25 mM-CaCl2 (50 μl) and 50 μl of several concentration of peptide was incubated at 37° C. for 10 min. To 200 Al of the reaction mixture, 60 μl of 4 mM S-2222, a synthetic substrate for factor Xa, and 340 μl of Tris-HCl buffer, pH 8.2, was added and further incubated for 15 min. The reaction was stopped by adding 60 μl of 50% acetic acid, and OD for p-nitroaniline was read at 405 nm.

[1] = system: Salmonella minnesota ReLPS sensitized sheep erythrocytes; assay: LPS hemagglutination assay (MAC); assay type: binding
Experimental: For hemagglutination assays, erythrocytes were sensitized with LPS as follows. One ml of 1% erythrocyte suspension (human 0 type, C3H/HeN mouse or sheep) was mixed with 0.2 ml of LPS solution and incubated at 37° C. for 30 min, followed by washing with phosphate buffered saline (PBS), and then the concentration of suspension was adjusted to 1.0%. In the case of S-LPS, the solution was heated at 100° C. for 1 hour before sensitization of erythrocytes. […] Activity of CAP was expressed as a minimum agglutinating concentration (MAC) of CAP. According to the method of Kirikae et al. (1986) Microbiol. Immunol. 30:269-274, 50 μl of 2-fold serial dilution of Re-LPS was added to 50 μl of 1.0% rabbit erythrocyte suspension, and incubated at 37° C. for 3 hour. Minimum agglutinating concentration of Re-LPS was expressed as 1 HA unit.

RAW 264.7 cells = assay: Reversal of LPS-induced inhibition of cell proliferation; assay type: cell-based, murine; conditions: cultures containing 5 ng/ml of LPS
Experimental: When LPS is added to RAW 264.7 cells it causes a dose-dependent inhibition of proliferation with differentiation of the cells into a macrophasge phenotype.

human mononuclear cells = assay: LPS-induced tissue factor by human mononuclear cells (clotting assay); assay type: cell-based
Experimental: Human mononuclear cells were separated from citrated peripheral blood by centrifugation over Sodium-metrizoate-Ficoll (lymphocyte Separation Medium, Japan Antibody Institute, Gumma). The resulting mixed mononuclear cell suspension was washed 3 times with RPMI 1640 media. Cell suspension (1×10^6 /ml) was stimulated with LPS for 16 to 18 hr.
Veronal buffered saline (VBS) was added to the cell pellet, lysed by 3 cycles of freeze/thaw and sonicated for 10 sec with a hand-held sonicator microbe (Handy Sonic, model UR-20P, Tomy Seiko LTD, Tokyo). Tissue factor activity was tested in modified unactivated partial thromboplastin time (7). One tenth ml of cell lysate (1×10^6 /ml) was preincubated with mouse plasma at 37° C. for 3 min. Then 0.1 ml of 25 mM-CaCl2 which contains phospholipid was added to the mixture and clotting time was measured using a fibrometer (Bio Quest Division, Becton Dickinson, Cokeysville, USA). A standard curve obtained from serial two-fold dilutions of rabbit brain thromboplastic (Simplastin, Ono Pharmaceutical Co.) was used to transpose tissue factor activity into arbitrary tissue factor units (1 μg/ml) suspension of rabbit brain was assigned a value of 1,000 units).
The mean tissue factor units+standard error was determined from three to four samples. Student's t test for unpair data was used to determine the statistically significant differences. A two-tailed P value of <0.05 was considered significant. […]

factor Xa = molecular target: T2, factor Xa (Homo sapiens, UniProt P00742); assay: Direct Xa inhibition using Xa substrate S2222; assay type: biochemical; conditions: concentrations over 10 μg/ml
T2 construct: purchased Sigma Chemical Co., St. Louis, Mo
From the text: Clotting method: Human plasma (Ortho plasma control, Ortho Diagnostic Co.). ATPP reagent(Organo-technika, Tokyo, Japan). Standard tissue factor, rabbit brain thromboplastin (Simplastin, ONO Pharmaceutical, Tokyo, Japan). Purified human factor VII, factor X, factor Xa (Sigma Chemical Co., St. Louis, Mo.). Russell Viper venom (RVV) and Echis Carinatus venom (ECV, Sigma Co.).
Synthetic chromogenic substrate method: Substrate for factor Xa, S2222 (Kabi, Bz-Ile-Glu-Arg-pNA) was used. Substrate for factor II (prothrombin), Boc-Val-Pro-Arg-pNA (Sigma Chemical Co.) was used.

human monocytes = assay: TNF release from LPS and IFNγ stimulated monocytes; assay type: cell-based
ddY mice = assay: Tissue factor lethality model; assay type: in vivo; conditions: for Survival (%): Tissue factor 1.0 mg/mouse IV
Experimental: Tissue factor lethality model. Reference tissue factor (simplastin, 1 mg/mouse) was IV injected into ddY mice (male, 20-week-old, 38-45 g) incubated with or without peptide.
^a Tissue factor (Simplastin, 10 mg/ml was mixed with equal volume of
synthetic peptide 100 μg/ml or 50 μg/ml and 0.2 ml of the mixture
injected IV. ddY mice (20 weeks, 38-45 gm).

[2] = LPS 0.1 μg/ml, peptide HA units: RNIP 2, CAP-18 1, HP-1 4, HP-2 2

T1 sequence (P00742 183-488): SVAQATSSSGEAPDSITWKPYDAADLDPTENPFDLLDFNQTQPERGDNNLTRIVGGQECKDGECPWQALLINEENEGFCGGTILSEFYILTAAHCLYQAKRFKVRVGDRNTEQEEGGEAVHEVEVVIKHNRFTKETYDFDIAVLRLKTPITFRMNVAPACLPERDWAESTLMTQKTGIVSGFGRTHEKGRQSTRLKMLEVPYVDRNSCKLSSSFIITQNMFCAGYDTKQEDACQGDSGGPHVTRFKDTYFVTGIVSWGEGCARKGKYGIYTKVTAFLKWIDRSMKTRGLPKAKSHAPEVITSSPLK
T1 sequence (P00742 41-179): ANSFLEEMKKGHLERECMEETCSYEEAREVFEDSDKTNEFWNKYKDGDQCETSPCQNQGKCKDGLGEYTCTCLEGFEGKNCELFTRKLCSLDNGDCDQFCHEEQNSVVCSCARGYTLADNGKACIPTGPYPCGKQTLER
T2 sequence (P00742 235-488 limits assumed): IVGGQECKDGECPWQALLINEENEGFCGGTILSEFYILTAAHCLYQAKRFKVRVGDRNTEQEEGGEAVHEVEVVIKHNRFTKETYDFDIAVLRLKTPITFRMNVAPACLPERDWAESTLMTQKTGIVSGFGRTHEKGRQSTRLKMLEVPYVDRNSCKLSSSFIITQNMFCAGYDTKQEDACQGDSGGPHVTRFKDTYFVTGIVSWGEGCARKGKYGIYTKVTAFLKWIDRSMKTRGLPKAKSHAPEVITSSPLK
T2 sequence (P00742 41-179 limits assumed): as the sequence (P00742 41-179) above

## RNIP: rabbit reactive nitrogen inhibitory protein, amino acids 135-171 of SEQ ID NO:4; purified from granulocytes (Tables 1-3) or synthetic (#197) (GLRKRLRKFRNKIKEKLKKIGQKIQGLLPKLAPRTDY)
Factor X
  IC50, Tissue factor VII, X to Xa: 0.3 to 0.7 µg/mL
[1]
  Hemagglutination [MAC], minimum agglutinating concentration: 7.9 µg/mL
RAW 264.7 cells
  effect on LPS-induced inhibition of RAW 264.7 cell proliferation: reverses the inhibition of proliferation
Human mononuclear cells; [2]
  Inhibition (%): 51% and 41%
  Tissue Factor Units, value in parentheses (ratio to unstimulated control): 9.0
Human mononuclear cells; LPS 0.1 μg/ml, relative to LPS alone (100), 960 min
  Δ Units (%): 49% and 59%
Human mononuclear cells; no LPS, peptide alone
  Tissue Factor Units, value in parentheses (ratio to unstimulated control): 1.3
  Tissue factor units: 636 ± 141 Units ×10^3 /3.6 × 10^4 cells
  Δ Units: 144 Units
Factor Xa
  direct Xa inhibition (in words): No evidence of direct Xa inhibition
Human monocytes; Human IFNγ (100 U), CAP (1:1), stimulus alone 2.0
  TNF: 0.27 ng/mL
Human monocytes; Human IFNγ (100 U), CAP (1:10), stimulus alone 2.0
  TNF: 0.35 ng/mL
Human monocytes; Human IFNγ (100 U), CAP (1:100), stimulus alone 2.0
  TNF: 0.35 ng/mL
Human monocytes; LPS (10 ng/ml), CAP (1:1), stimulus alone 1.0
  TNF: 0.12 ng/mL
Human monocytes; LPS (10 ng/ml), CAP (1:10), stimulus alone 1.0
  TNF: 0.34 ng/mL
Human monocytes; LPS (10 ng/ml), CAP (1:100), stimulus alone 1.0
  TNF: 0.23 ng/mL
ddY mice; Peptide #197 5 μg/mouse
  Survival (%): 43%
ddY mice; Peptide #197 10 μg/mouse, p < 0.05 vs tissue factor control
  Survival (%): 57%
ddY mice; tissue factor IV (Simplastin, 1 mg/mouse)
  reduction of mortality: 57%
